As usually defined, the IC50 is the concentration that gives 50% inhibition. A low value points to inhibition by little substance.

The values that follow come from patent US12172995B2, “Substituted indole and indazole compounds” (BRISTOL-MYERS SQUIBB COMPANY, priority 2018, dated 2024).

What all share (assay type): cell-based
One assay addresses T1, human TLR9 (Homo sapiens, UniProt Q9NR96).
T1 construct: host or cells: HEK-Blue cells
T1 sequence (Q9NR96 26-1032): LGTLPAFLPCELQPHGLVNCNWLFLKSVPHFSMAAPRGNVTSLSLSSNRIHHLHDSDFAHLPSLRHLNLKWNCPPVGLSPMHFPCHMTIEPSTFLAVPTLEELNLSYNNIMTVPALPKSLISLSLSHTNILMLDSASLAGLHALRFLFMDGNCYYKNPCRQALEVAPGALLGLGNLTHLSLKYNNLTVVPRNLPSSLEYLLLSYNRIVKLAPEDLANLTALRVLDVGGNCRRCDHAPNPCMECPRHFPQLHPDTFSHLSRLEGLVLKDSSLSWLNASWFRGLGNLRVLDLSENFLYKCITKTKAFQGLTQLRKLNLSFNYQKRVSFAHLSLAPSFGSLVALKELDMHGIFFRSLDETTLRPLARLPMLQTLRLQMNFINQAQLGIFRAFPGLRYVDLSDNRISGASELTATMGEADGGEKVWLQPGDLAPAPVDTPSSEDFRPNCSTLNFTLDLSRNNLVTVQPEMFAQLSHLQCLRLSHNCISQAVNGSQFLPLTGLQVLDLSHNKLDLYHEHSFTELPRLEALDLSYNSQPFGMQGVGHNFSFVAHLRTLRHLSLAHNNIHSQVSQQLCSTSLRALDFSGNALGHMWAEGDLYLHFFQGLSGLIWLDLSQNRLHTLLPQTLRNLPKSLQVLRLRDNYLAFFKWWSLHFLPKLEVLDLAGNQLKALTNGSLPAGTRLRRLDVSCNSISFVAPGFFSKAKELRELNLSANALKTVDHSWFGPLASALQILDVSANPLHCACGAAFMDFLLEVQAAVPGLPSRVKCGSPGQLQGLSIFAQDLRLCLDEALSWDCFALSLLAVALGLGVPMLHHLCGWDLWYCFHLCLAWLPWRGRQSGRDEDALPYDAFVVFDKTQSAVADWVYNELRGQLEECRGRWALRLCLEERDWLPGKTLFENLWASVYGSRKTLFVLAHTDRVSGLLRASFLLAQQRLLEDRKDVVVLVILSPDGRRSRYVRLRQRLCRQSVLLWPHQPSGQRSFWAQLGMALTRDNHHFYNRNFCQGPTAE
The experiment in a line: TLR9 inhibition reporter assay (HEK-Blue SEAP). Conditions: HEK-Blue cells overexpressing human TLR9, stimulated with ODN2006 5 nM, 22 hour incubation. In outline: (§1)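 HEK-Blue cells overexpressing the receptor, with an NF-κB/AP-1-driven SEAP reporter, were pre-treated with compound (0.05 nM to 50 μM) for 30 min at room temperature. Stimulation used gardiquimod 7.5 μM (TLR7), R848 15.9 μM (TLR8) or ODN2006 5 nM (TLR9), followed by 22 h at 37 °C.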
A general note: Reporter assays use an easily measured gene product as a stand-in for the process of interest.

A further assay addresses T2, human TLR8 (Homo sapiens, UniProt Q9NR97).
T2 construct: host or cells: HEK-Blue cells
T2 sequence (Q9NR97 27-1041): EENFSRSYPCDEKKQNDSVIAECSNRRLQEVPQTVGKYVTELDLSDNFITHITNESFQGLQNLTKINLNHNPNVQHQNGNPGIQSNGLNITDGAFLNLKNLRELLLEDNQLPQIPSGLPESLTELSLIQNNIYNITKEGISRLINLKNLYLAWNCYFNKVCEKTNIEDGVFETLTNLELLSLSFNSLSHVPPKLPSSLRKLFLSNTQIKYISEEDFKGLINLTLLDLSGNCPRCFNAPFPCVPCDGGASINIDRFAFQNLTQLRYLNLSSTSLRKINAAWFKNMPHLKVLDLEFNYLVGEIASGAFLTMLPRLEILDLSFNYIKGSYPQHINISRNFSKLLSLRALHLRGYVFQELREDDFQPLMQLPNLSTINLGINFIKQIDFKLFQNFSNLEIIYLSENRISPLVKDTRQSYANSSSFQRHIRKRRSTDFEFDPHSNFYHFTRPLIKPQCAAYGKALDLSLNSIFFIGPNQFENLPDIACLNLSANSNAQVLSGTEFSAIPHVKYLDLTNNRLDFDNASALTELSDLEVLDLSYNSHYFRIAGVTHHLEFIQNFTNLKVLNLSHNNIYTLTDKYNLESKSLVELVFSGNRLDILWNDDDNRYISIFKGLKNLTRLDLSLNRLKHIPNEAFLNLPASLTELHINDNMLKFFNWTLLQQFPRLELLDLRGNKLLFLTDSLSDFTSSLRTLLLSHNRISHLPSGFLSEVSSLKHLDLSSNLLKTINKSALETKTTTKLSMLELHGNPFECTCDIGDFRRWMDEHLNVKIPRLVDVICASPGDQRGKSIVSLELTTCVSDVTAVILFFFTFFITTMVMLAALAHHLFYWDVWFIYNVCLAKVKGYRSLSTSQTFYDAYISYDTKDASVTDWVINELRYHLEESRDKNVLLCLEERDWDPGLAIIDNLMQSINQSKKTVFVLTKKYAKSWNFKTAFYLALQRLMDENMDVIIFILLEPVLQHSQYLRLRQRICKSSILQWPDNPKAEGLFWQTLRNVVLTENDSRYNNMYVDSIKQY
The experiment in a line: TLR8 inhibition reporter assay (HEK-Blue SEAP). The following applies: HEK-Blue cells overexpressing human TLR8, stimulated with R848 15.9 μM, 22 hour incubation. A digest of the protocol: as §1

The next assay addresses T3, human TLR7 (Homo sapiens, UniProt Q9NYK1).
T3 construct: host or cells: HEK-Blue cells
T3 sequence (Q9NYK1 27-1049): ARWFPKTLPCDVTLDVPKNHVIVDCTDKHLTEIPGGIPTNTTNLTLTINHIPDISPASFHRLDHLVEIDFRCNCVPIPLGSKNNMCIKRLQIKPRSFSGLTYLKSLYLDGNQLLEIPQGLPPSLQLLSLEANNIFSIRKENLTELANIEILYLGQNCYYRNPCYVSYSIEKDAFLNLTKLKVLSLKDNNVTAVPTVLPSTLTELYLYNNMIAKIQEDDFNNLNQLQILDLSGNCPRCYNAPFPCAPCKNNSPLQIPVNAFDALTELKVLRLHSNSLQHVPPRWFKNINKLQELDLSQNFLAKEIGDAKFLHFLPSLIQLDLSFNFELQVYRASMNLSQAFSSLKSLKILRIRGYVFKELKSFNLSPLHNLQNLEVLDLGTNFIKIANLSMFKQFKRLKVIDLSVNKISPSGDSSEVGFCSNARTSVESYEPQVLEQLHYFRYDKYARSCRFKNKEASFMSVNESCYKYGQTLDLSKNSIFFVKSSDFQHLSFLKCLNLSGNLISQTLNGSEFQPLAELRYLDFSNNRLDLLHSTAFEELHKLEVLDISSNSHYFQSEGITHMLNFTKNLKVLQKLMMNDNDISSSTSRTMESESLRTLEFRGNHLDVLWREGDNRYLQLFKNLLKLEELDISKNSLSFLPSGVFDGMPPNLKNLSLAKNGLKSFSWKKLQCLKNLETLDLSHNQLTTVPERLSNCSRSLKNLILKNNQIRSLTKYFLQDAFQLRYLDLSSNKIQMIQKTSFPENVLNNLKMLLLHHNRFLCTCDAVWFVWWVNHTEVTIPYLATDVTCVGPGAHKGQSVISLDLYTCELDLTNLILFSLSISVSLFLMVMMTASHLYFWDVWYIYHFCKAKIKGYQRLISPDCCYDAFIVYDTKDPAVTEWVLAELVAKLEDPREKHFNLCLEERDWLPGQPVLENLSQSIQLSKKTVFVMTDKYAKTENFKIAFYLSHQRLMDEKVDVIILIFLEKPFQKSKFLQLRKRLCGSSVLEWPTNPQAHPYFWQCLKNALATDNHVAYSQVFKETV
The experiment in a line: TLR7 inhibition reporter assay (HEK-Blue SEAP). The following applies: HEK-Blue cells overexpressing human TLR7, stimulated with gardiquimod 7.5 μM, 22 hour incubation. In outline:
as §1

On to `Cc1cc2c(C3CCC(NCCS(C)(=O)=O)CC3)n[nH]c2cc1-c1cc(C)c2ncnn2c1` (stereo not drawn) [Example 31, 4-(5-methyl-6-(8-methyl-[1,2,4]triazolo[1,5-a]pyridin-6-yl)-1H-indazol-3-yl)-N-(2-(methylsulfonyl)ethyl)cyclohexan-1-amine], for which the results for the IC50 on human TLR9, against human TLR8 and against human TLR7 were 6120 nM, 0.6 nM and 39.8 nM, respectively.
For `Cc1cc2c(C3CCCNC3)n[nH]c2cc1-c1ccc2ncnn2c1` (stereo not drawn) [Example 58, 6-(5-methyl-3-(piperidin-3-yl)-1H-indazol-6-yl)-[1,2,4]triazolo[1,5-a] pyridine], in that order: 661 nM, 2.8 nM and 76.2 nM.
As to `Cc1cc(-c2cc3[nH]nc(N4CCNCC4)c3cc2C(C)C)cn2ncnc12` [Example 206, 6-(5-isopropyl-3-(piperazin-1-yl)-1H-indazol-6-yl)-8-methyl-[1,2,4]triazolo[1,5-a]pyridine], the half-maximal inhibitory concentration (IC50) at human TLR9 was found to be 21900 nM; on human TLR8 it was 16.4 nM; against human TLR7, 3.2 nM.
Regarding `Cc1cc(-c2cc3[nH]nc(C4CCC(N5CCC(F)C5)CC4)c3cc2C(C)C)cn2ncnc12` (stereo not drawn) [Example 163, 6-(3-(4-(3-fluoropyrrolidin-1-yl)cyclohexyl)-5-isopropyl-1H-indazol-6-yl)-8-methyl-[1,2,4] triazolo[1,5-a]pyridine], the IC50 at human TLR9 amounted to 6230 nM; against human TLR8 it was 0.1 nM; against human TLR7, 0.9 nM.
Take `Cc1cc(-c2cc(C)c3ncnn3c2)cc2[nH]nc(OC3CCNCC3)c12` [Example 174, 8-methyl-6-(4-methyl-3-(piperidin-4-yloxy)-1H-indazol-6-yl)-[1,2,4]triazolo[1,5-a]pyridine]: the figures for the 50% inhibitory concentration (IC50) against human TLR9, against human TLR8 and at human TLR7 were 438 nM, 1.4 nM and 1.8 nM, respectively.
For `Cc1cc(-c2cc(C)c3ncnn3c2)cc2[nH]nc(OC3CCN(CC(=O)N(C)C)CC3)c12` [Example 176, N,N-dimethyl-2-(4-((4-methyl-6-(8-methyl-[1,2,4]triazolo[1,5-a]pyridin-6-yl)-1H-indazol-3-yl)oxy)piperidin-1-yl)acetamide], in that order: 4920 nM, 3.8 nM and 12.5 nM.
As for `Cc1cc2c(C3CCC(NC(C)C)CC3)n[nH]c2cc1-c1cc(C)c2ncnn2c1` (single isomer, unassigned) [Example 39, N-isopropyl-4-(5-methyl-6-(8-methyl-[1,2,4]triazolo[1,5-a]pyridin-6-yl)-1H-indazol-3-yl) cyclohexan-1-amine], the IC50 against human TLR9 turned out to be 4120 nM; at human TLR8, 0.9 nM; on human TLR7 it was 22.6 nM.
For `Cc1cc(-c2cc(C)c3ncnn3c2)cc2[nH]nc(C3CCC(N(C)C)CC3)c12` (stereo not drawn) [Example 80, N,N-dimethyl-4-(4-methyl-6-(8-methyl-[1,2,4]triazolo[1,5-a]pyridin-6-yl)-1H-indazol-3-yl) cyclohexan-1-amine], the values for the half-maximal inhibitory concentration (IC50) against human TLR9, at human TLR8 and at human TLR7 were 2840 nM, 2.5 nM and 3.8 nM, respectively.
As for `Cc1cc(-c2cc3[nH]nc(C4CCC(N5CCCC5)CC4)c3cc2C(C)C)cn2ncnc12` (single isomer, unassigned) [Example 130, 6-(5-isopropyl-3-(4-(pyrrolidin-1-yl)cyclohexyl)-1H-indazol-6-yl)-8-methyl-[1,2,4]triazolo[1,5-a]pyridine], the figures for the half-inhibitory concentration (IC50) at human TLR9, at human TLR8 and on human TLR7 were 4200 nM, 0.1 nM and 0.2 nM, respectively.
For `Cc1cc(-c2cc3[nH]nc(C4CCN(CC(C)(C)O)CC4)c3cc2C(C)C)cn2ncnc12` [Example 113, 1-(4-(5-isopropyl-6-(8-methyl-[1,2,4]triazolo[1,5-a]pyridin-6-yl)-1H-indazol-3-yl)piperidin-1-yl)-2-methylpropan-2-ol] the same measures were 20300 nM, 0.1 nM and 1.5 nM.
On to `Cc1cc(-c2cc3[nH]nc(C4CCC(N5CC(F)C5)CC4)c3cc2C(C)C)cn2ncnc12` (stereo not drawn) [Example 152, 6-(3-(4-(3-fluoroazetidin-1-yl)cyclohexyl)-5-isopropyl-1H-indazol-6-yl)-8-methyl-[1,2,4]triazolo[1,5-a]pyridine], for which the concentration for half-maximal inhibition (IC50) against human TLR9 stood at 13000 nM; at human TLR8, 0.3 nM; on human TLR7, 1.3 nM.
For `Cc1cc(-c2cc(C)c3ncnn3c2)cc2[nH]nc(OC3CCN(C)CC3)c12` [Example 177, 8-methyl-6-(4-methyl-3-((1-methylpiperidin-4-yl)oxy)-1H-indazol-6-yl)-[1,2,4]triazolo[1,5-a]pyridine] the same measures were 928 nM, 0.5 nM and 2.7 nM.
Take `Cc1cc2c(C3CCN(CCS(C)(=O)=O)CC3)n[nH]c2cc1-c1cc(C)c2ncnn2c1` [Example 68, 8-methyl-6-(5-methyl-3-(1-(2-(methylsulfonyl)ethyl)piperidin-4-yl)-1H-indazol-6-yl)-[1,2,4]triazolo[1,5-a]pyridine]: the half-inhibitory concentration (IC50) was 13000 nM at human TLR9, 2.5 nM at human TLR8 and 68 nM on human TLR7.
